Source: patent US11072582B2 (Epics Therapeutics, priority 2009, dated 2021)

Tested on: adipocytes isolated from normal rat
Test: Lipolysis assay in isolated adipocytes (isoprenaline-induced)
Format: cell-based
Settings: 30 μM, FIG. 1
Experimental: Animals are killed by cervical dislocation and epididymal fat pads are removed and digested in collagenase buffer at 37° C./120 rpm for approximately 50 minutes.
After the pre-treatment, Isoprenaline (1 μM) is added to the adipocytes followed by 30 min incubation at 37° C./150 rpm. The reactions are put on ice and the buffer is assayed spectrophotometrically for the production of NADH^+ from glycerol breakdown in reactions catalyzed by glycerol kinase and glycero 1-3-phosphate dehydrogenase and/or Non Esterified Fatty Acid (NEFA). Each data point is investigated in triplicates in two independent experiments.

Structure (SMILES): Cc1ccc(-c2ccc(C(=O)N3[C@@H](c4ccccc4Cl)CC[C@H]3C(=O)O)cc2)cc1 [Compound 5]
- inhibition of isoprenaline-induced lipolysis: inhibit isoprenaline-induced lipolysis
